Data from patent US6448273B1, “Orally active iron (III) chelators” (BTG International Limited, priority 1997, dated 2002).
Where a name gives a salt, the structure may show the parent alone. Read-outs that look alike come from different tables or passages of the source.

Tests used:
[1] = Iron III Mobilisation Efficacy Assay in Rat: Oral Administration; format: in vivo; settings: for Efficacy: iron mobilisation less control
Protocol: Control rats were given an equivalent volume of water. The rats were placed in individual metabolic cages and their urine and faeces collected. One hour after the administration they were allowed access to food, with no restriction on water being made throughout the study period. The investigation was terminated 24 hours after the ^59Fe ferritin administration when rats were sacrificed and their livers and gastrointestinal tracts, including all contents including faeces, were removed for gamma counting.

[2] = cited from earlier work
[3] = in vivo; cited from earlier work
[4] = Iron (III) complex stability constant Logβ3; format: physicochemical
[5] = pM for Iron III (affinity for iron as Fe III); format: physicochemical; settings: negative log ferric ion concentration; total iron 10^-6 M, ligand 10^-5 M
Source text: The present inventors now have provided a group of 3-hydroxypyridin-4-one iron chelators having improved properties as compared to the prior art as assessed against the criteria set out above. […] Preferred compounds have efficiency of iron mobilisation of in excess of 52% when given orally to rats. […]

[6] = Distribution coefficient DpH7.4 (Kpart), octanol/MOPS pH 7.4; format: physicochemical
Source text: The requirements for orally active chelators are set out in Table 4 of Hider et al as (i) good absorption from tile gastrointestinal tract, (ii) efficient liver extraction, (iii) poor entry into peripheral cells such as thymus, muscle, heart and bone marrow and (iv) poor ability to penetrate the blood-brain barrier and maternal/placental barriers.

pKa of the ligand = format: physicochemical
[7] = method marked (p), first pKa, read-out: pKa, first value (p)
[8] = method marked (p), second pKa, read-out: pKa, second value (p)
[9] = method marked (s), first pKa, read-out: pKa, first value (s)
[10] = method marked (s), second pKa, read-out: pKa, second value (s)

SMILES	Logβ3 [4]	pMpH 7.45 [5]	DpH 7.4 [6]	pKa, first value (s) (pKa of the ligand; method marked (s), first pKa)	pKa, second value (s) (pKa of the ligand; method marked (s), second pKa)	pKa (pKa of the ligand; [7])	pKa (pKa of the ligand; [8])	pKa (pKa of the ligand; [9])	pKa (pKa of the ligand; [10])	melting point [°C]	Iron Mobilisation ([1]; 150 μmol/kg) [%]	Efficacy ([1]; 150 μmol/kg) [%]	Iron Mobilisation ([1]; 300 μmol/kg) [%]	Efficacy ([1]; 300 μmol/kg) [%]	Iron Mobilisation ([1]; 450 μmol/kg) [%]	Efficacy ([1]; 450 μmol/kg) [%]	effectiveness in man [2]	crossing of placenta and blood brain barrier [3]	phase II metabolism [3]
CCc1c(O)c(=O)ccn1CC [CP94, 1,2-diethyl-3-hydroxypyridin-4-one, reference compound]	36.7	19.7	1.79								16.5 ± 6.2	12.6	35.7 ± 4.4	31.8	59.7 ± 10.9	55.8	effective in man	able to cross the placenta and blood brain barrier	rapidly inactivated by phase II metabolism
Cc1cc(=O)c(O)c(CO)n1C [CP360, 1,6-Dimethyl-2-hydroxymethyl-3-hydroxy-pyridin-4(1H)-one hydrochloride]	35.51	20.43	0.098	3.37	9.42														
Cc1cc(=O)c(O)c(C(C)O)n1C (stereo not shown) [CP361, 1,6-Dimethyl-2-(1-hydroxyethyl)-3-hydroxy-pyridin-4(1H)-one hydrochloride]	3.52	21.47	0.25	3.55	8.97														
Cc1c(O)c(=O)ccn1C [CP20, reference compound]	36.3	19.4	0.17	3.56	9.64						6.3 ± 2.1	2.4	9.2 ± 2.2	5.4	13.4 ± 5.2	9.5	effective in man	able to cross the placenta and blood brain barrier	rapidly inactivated by phase II metabolism
Cn1ccc(=O)c(O)c1CO [CP364, 1-Methyl-2-hydroxymethyl-3-hydroxy-pyridin-4(1H)-one hydrochloride]	35.3	20.75	0.048	2.93		3.13	9.22		9.12										

More lines, main results first:

Logβ3 [4]	pMpH 7.45 [5]	DpH 7.4 [6]	pKa, first value (s) (pKa of the ligand; method marked (s), first pKa)	pKa, second value (s) (pKa of the ligand; method marked (s), second pKa)	pKa (pKa of the ligand; [7])	pKa (pKa of the ligand; [8])	pKa (pKa of the ligand; [9])	pKa (pKa of the ligand; [10])	melting point [°C]	SMILES	Iron Mobilisation ([1]; 150 μmol/kg) [%]	Efficacy ([1]; 150 μmol/kg) [%]	Iron Mobilisation ([1]; 300 μmol/kg) [%]	Efficacy ([1]; 300 μmol/kg) [%]	Iron Mobilisation ([1]; 450 μmol/kg) [%]	Efficacy ([1]; 450 μmol/kg) [%]	effectiveness in man [2]	crossing of placenta and blood brain barrier [3]	phase II metabolism [3]
35.78	23.42	0.04			2.83	8.38	2.64	8.36		CNC(=O)c1c(O)c(=O)cc(C)n1C [CP502, 1,6-Dimethyl-3-hydroxy-4(1H)-pyridinone-2-carboxy-(N-methyl)-amide hydrochloride]									
35.25	20.69	0.056	2.87	9.14					138 to 139	O=c1ccn(CCCO)c(CO)c1O [CP366, 1-(3-hydroxypropyl)-2-hydroxymethyl-3-hydroxy-pyridin-4(1H)-one]									
35.57	23.15	2.81			2.59	8.38	2.6	8.39		O=c1ccn(CCO)c(C(O)c2ccccc2)c1O (stereo not shown) [Novartis bidentate ligand (3), reference compound]									
35.03	20.95	0.73		8.98	2.76		2.78			CCC(O)c1c(O)c(=O)cc(C)n1C (stereo not shown) [CP374, 1,6-Dimethyl-2-(1-hydroxypropyl)-3-hydroxy-pyridin-4(1H)-one hydrochloride]	34.0 ± 4.3	30.1			60.4 ± 15.6	56.5			
